From patent US4738954A, “Novel N^6 -substituted-5'-oxidized adenosine analogs” (Warner-Lambert Company, priority 1985, dated 1988)

How the values were obtained:
[1] = system: platelets (ADP-induced aggregation); test: Antithrombocyte aggregation test in vitro (ATA-8), ADP-induced, whole blood; format: cell-based, human (Community Research Clinic volunteers); settings: Homo sapiens, Platelet
Procedure: (§1) ANTITHROMBOCYTE AGGREGATION TEST-IN VITRO (ATA-8)
Blood is collected from Community Research Clinic volunteers who have not ingested aspirin or other non-steroidol antiinflammatory drugs within the preceeding two weeks and have not eaten within the nine hours before blood draw. Blood is taken in 4.5 ml portions in Vacutainer No. 6462S silicone-coated tubes or equivalent containing 0.5 ml of 3.8% trisodium citrate. Usually six or eight portions of 4.5 ml are drawn from each volunteer. […] The pooled blood is put in 50 ml polyethylene tubes and centrifuged at 80×g (ca 600 rpm) for 20 min in an International Model K centrifuge at room temperature. […]
(§2) Addition of drug solution or saline (0.02 ml) is followed in 5 min by addition of aggregating agent (ADP or collagen suspension, 0.02 ml). Extent of aggregation, using ADP stimulus, or rate of aggregation, using collagen stimulus, is determined using the Payton Scientific Dual Channel Aggregation Module, Model 300B. Appropriate concentrations of ADP or collagen are determined by an initial brief titration.
The height in millimeters of aggregation curves for control aggregations (no drug addition, saline only) are compared with the heights of curves obtained after drug addition at various appropriate concentrations. Heights after drug addition are finally expressed as "percent of control" values. […]

[2] = system: platelets (collagen-induced aggregation); test: Antithrombocyte aggregation test in vitro (ATA-8), collagen-induced, whole blood; format: cell-based, human (Community Research Clinic volunteers); settings: Homo sapiens, Platelet
Procedure: as §1
Blood is collected from Community Research Clinic volunteers who have not ingested aspirin or other non-steroidol antiinflammatory drugs within the preceeding two weeks and have not eaten within the nine hours before blood draw. Blood is taken in 4.5 ml portions in Vacutainer No. 6462S silicone-coated tubes or equivalent containing 0.5 ml of 3.8% trisodium citrate. Usually six or eight portions of 4.5 ml are drawn from each volunteer. The blood collected from three or four volunteers is pooled prior to centrifugation. […]
as §2
The major slope (that is, the slope of the first straight line portion) of the collagen-induced aggregation curve for each drug concentration is determined and compared to the slope of the curve for control aggregations. Values for drug test aggregations are expressed as "precent of control" and are plotted versus drug concentration on semilog paper. […]

- IC50 [1]: 0.7 nM
- IC50 [2]: 50 nM
SMILES: CCNC(=O)[C@H]1O[C@@H](n2cnc3c(N[C@H](C)Cc4ccccc4)ncnc32)[C@H](O)[C@@H]1O [Example 1, (R)-N-6-[(2-phenyl-1-methyl)ethyl]-adenosine-5'-ethylcarboxamide]
